Read-outs that look alike come from different tables or passages of the source.
Columns and labels:
Assay in all cases: In vitro competitive activity-based protein profiling (gel-based, FP-Rh or HT-01 probe)
Type in all cases: biochemical
ABHD6 = target: T1, ABHD6 (Mus musculus, UniProt Q8R2Y0); conditions: for inhibition at 1 µM: 1 μM inhibitor, read-out: % Inhibition at 1 μM, C = ABHD6; for inhibition at 10 µM: 10 μM inhibitor, read-out: % Inhibition at 10 μM, C = ABHD6; for IC50: mouse brain membrane fraction or cell lysates, 30 min preincubation at 37° C., read-out: Mouse (IC50 value, nM) ABHD6
T1 construct: Proteomes (mouse brain membrane fraction or cell lysates); from tissue; host or cells: mouse brain membrane fraction (or cell lysates, not specified)
T1 sequence (Q8R2Y0 1-336): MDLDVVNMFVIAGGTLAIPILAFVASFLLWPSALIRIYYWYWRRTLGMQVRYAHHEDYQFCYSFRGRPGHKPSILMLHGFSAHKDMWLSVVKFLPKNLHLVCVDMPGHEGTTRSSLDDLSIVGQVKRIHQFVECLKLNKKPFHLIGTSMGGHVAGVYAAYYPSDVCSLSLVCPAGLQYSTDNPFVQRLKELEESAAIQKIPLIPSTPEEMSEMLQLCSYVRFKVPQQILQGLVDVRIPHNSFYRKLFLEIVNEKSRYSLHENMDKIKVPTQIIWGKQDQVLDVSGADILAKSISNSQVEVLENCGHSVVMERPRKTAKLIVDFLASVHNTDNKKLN
How it was run: (§1)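 Mouse brain membrane or cell lysate proteomes (1.0 mg/mL) preincubated with inhibitors 30 min at 37° C, then labelled with FP-Rh or HT-01 for 30 min at 37° C. After SDS-PAGE, activity quantified from fluorescent band intensity.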

FAAH = target: T2, FAAH (Mus musculus, UniProt O08914); conditions: for inhibition at 1 µM: 1 μM inhibitor, read-out: % Inhibition at 1 μM, B = FAAH; for inhibition at 10 µM: 10 μM inhibitor, read-out: % Inhibition at 10 μM, B = FAAH; for IC50: mouse brain membrane fraction or cell lysates, 30 min preincubation at 37° C., read-out: Mouse (IC50 value, nM) FAAH
T2 construct: Proteomes (mouse brain membrane fraction or cell lysates); from tissue; host or cells: mouse brain membrane fraction (or cell lysates, not specified)
T2 sequence (O08914 1-579): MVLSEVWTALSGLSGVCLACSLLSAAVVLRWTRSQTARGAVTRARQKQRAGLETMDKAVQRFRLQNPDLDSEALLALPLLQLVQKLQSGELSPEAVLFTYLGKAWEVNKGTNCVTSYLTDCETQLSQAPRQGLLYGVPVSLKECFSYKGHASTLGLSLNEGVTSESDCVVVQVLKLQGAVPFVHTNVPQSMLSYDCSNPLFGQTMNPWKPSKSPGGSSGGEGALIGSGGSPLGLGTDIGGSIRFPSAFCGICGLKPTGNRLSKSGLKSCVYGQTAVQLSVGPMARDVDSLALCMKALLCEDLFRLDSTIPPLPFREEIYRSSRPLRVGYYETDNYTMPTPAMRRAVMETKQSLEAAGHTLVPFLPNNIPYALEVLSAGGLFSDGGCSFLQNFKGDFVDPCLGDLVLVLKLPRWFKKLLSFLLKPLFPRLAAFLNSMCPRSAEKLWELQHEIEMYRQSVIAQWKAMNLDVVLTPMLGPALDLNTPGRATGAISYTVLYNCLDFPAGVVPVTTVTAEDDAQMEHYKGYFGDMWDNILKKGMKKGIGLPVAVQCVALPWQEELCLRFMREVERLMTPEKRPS
How it was run: as §1

MAGL = target: T3, MAGL (Mus musculus, UniProt O35678); conditions: for inhibition at 1 µM: 1 μM inhibitor; for inhibition at 10 µM: 10 μM inhibitor; for IC50: mouse brain membrane fraction or cell lysates, 30 min preincubation at 37° C., read-out: Mouse (IC50 value, nM) MAGL
T3 construct: Proteomes (mouse brain membrane fraction or cell lysates); from tissue; host or cells: mouse brain membrane fraction (or cell lysates, not specified)
T3 sequence (O35678 1-303): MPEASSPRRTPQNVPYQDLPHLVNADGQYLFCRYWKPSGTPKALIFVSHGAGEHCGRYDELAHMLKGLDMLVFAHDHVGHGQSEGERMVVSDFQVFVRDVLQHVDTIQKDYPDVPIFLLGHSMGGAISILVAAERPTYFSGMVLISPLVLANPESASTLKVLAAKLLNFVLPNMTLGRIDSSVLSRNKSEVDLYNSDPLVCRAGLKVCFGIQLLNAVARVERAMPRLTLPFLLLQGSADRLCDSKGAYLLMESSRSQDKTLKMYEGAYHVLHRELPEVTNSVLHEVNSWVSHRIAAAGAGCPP
How it was run: as §1

PLA2G7 = target: T4, PLA2G7 (Mus musculus, UniProt Q60963); conditions: for inhibition at 1 µM: 1 μM inhibitor, read-out: % Inhibition at 1 μM, D = PLA2G7; for inhibition at 10 µM: 10 μM inhibitor, read-out: % Inhibition at 10 μM, D = PLA2G7; for IC50: mouse brain membrane fraction or cell lysates, 30 min preincubation at 37° C.
T4 construct: Proteomes (mouse brain membrane fraction or cell lysates); from tissue; host or cells: mouse brain membrane fraction (or cell lysates, not specified)
T4 sequence (Q60963 22-440): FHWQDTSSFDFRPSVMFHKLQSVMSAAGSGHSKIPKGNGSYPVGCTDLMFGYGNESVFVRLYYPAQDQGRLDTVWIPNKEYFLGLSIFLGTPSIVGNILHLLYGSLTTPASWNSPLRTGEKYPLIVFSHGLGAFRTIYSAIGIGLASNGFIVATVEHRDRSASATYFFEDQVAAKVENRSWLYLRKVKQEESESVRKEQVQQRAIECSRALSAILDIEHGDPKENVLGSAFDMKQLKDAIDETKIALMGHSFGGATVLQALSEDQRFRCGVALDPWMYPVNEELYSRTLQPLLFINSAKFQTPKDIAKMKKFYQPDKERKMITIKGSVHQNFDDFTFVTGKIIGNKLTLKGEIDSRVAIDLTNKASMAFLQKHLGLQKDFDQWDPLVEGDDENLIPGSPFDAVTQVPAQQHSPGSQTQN
How it was run: as §1

| SMILES | inhibition at 1 µM (ABHD6) [%] | inhibition at 10 µM (ABHD6) [%] | inhibition at 1 µM (FAAH) [%] | inhibition at 10 µM (FAAH) [%] | inhibition at 1 µM (MAGL) [%] | inhibition at 10 µM (MAGL) [%] | inhibition at 1 µM (PLA2G7) [%] | inhibition at 10 µM (PLA2G7) [%] | inhibition at 1 µM (ABHD6; gel-based competitive ABPP) [%] | inhibition at 1 µM (FAAH; gel-based competitive ABPP) [%] | inhibition at 1 µM (MAGL; gel-based competitive ABPP) [%] | inhibition at 1 µM (PLA2G7; gel-based competitive ABPP) [%] | IC50 (ABHD6) [nM] | IC50 (FAAH) [nM] | IC50 (MAGL) [nM] | IC50 (PLA2G7) [nM] |
| --- | --- | --- | --- | --- | --- | --- | --- | --- | --- | --- | --- | --- | --- | --- | --- | --- |
| N#Cc1cnn(C(=O)N2CCOCC2)c1 [Example 205, 1-(Morpholine-4-carbonyl)-1H-pyrazole-4-carbonitrile] | 25 to 75 | > 75 | > 75 | > 75 | < 25 | 25 to 75 | > 75 | > 75 | – | – | – | – | – | – | – | – |
| Cc1cnn(C(=O)N2CCN(C(=O)OC(C)(C)C)CC2)c1 [Example 5, tert-Butyl 4-(4-methyl-1H-pyrazole-1-carbonyl)piperazine-1-carboxylate] | 25 to 75 | > 75 | < 25 | > 75 | < 25 | 25 to 75 | > 75 | > 75 | – | – | – | – | – | – | – | – |
| O=C(c1cnn(C(=O)N2CCN(Cc3ccc4c(c3)OCO4)CC2)c1)N1CCCC1 [Example 78, (4-(Benzo[d][1,3]dioxol-5-ylmethyl)piperazin-1-yl)(4-(pyrrolidine-1-carbonyl)-1H-pyrazol-1-yl)methanone] | > 75 | > 75 | > 75 | > 75 | < 25 | > 75 | < 25 | > 75 | – | – | – | – | – | – | – | – |
| O=C(N1CCN(Cc2ccc(CN3CCOCC3)cc2)CC1)n1cc(Cl)cn1 [Example 214, (4-Chloro-1H-pyrazol-1-yl)(4-(4-(morpholinomethyl)benzyl)piperazin-1-yl)methanone] | > 75 | – | > 75 | – | > 75 | – | > 75 | – | – | – | – | – | – | – | – | – |
| COc1ccccc1CN1CCN(C(=O)n2cc(C(F)(F)F)cn2)CC1 [Example 278, (4-(2-Methoxybenzyl)piperazin-1-yl)(4-(trifluoromethyl)-1H-pyrazol-1-yl)methanone] | – | – | – | – | – | – | – | – | > 75 | > 75 | > 75 | > 75 | – | – | – | – |
| CCN(Cc1ccc(N2CCOCC2)cc1)C(=O)n1cc(C(F)(F)F)cn1 [Example 264, N-Ethyl-N-(4-morpholinobenzyl)-4-(trifluoromethyl)-1H-pyrazole-1-carboxamide] | – | – | – | – | – | – | – | – | < 25 | > 75 | > 75 | < 25 | > 1000 | < 100 | 100 to 1000 | > 1000 |
| O=C(c1cnn(C(=O)N2CCN(Cc3cccnc3)CC2)c1)N1CCCC1 [Example 80, (4-(Pyridin-3-ylmethyl)piperazin-1-yl)(4-(pyrrolidine-1-carbonyl)-1H-pyrazol-1-yl)methanone] | 25 to 75 | > 75 | – | 25 to 75 | – | < 25 | < 25 | > 75 | – | – | – | – | – | – | – | – |
| CC(=O)N(C)CCN(C)C(=O)n1cc(C)cn1 [Example 170, N,4-Dimethyl-N-(2-(N-methylacetamido)ethyl)-1H-pyrazole-1-carboxamide] | – | < 25 | – | < 25 | – | < 25 | – | < 25 | – | – | – | – | – | – | – | – |
| CCN(Cc1cccc(C)c1)C(=O)n1cc(C)cn1 [Example 248, N-ethyl-4-methyl-N-(3-methylbenzyl)-1H-pyrazole-1-carboxamide] | – | – | – | – | – | – | – | – | < 25 | < 25 | < 25 | < 25 | – | – | – | – |
| Cc1cc(-c2ccccc2)ccc1CN1CCN(C(=O)n2cc(-c3ccccc3)cn2)CC1 [Example 65, (4-((3-Methyl-[1,1′-biphenyl]-4-yl)methyl)piperazin-1-yl)(4-phenyl-1H-pyrazol-1-yl)methanone] | > 75 | > 75 | > 75 | > 75 | < 25 | > 75 | > 75 | > 75 | – | – | – | – | – | – | – | – |
| Cc1cnn(C(=O)N2CCCN(Cc3ccccc3)CC2)c1 [Example 168, (4-Benzyl-1,4-diazepan-1-yl)(4-methyl-1H-pyrazol-1-yl)methanone] | – | < 25 | – | < 25 | – | < 25 | – | < 25 | – | – | – | – | – | – | – | – |
| CN(Cc1cccc(-c2ccncc2)c1)C(=O)n1cc(C(F)(F)F)cn1 [Example 222, N-methyl-N-(3-(pyridin-4-yl)benzyl)-4-(trifluoromethyl)-1H-pyrazole-1-carboxamide] | > 75 | > 75 | > 75 | > 75 | > 75 | > 75 | 25 to 75 | < 25 | – | – | – | – | – | – | – | – |
| O=C(N1CCN(c2ccccc2N2CCCC2)CC1)n1cc(C(F)(F)F)cn1 [Example 239, (4-(2-(Pyrrolidin-1-yl)phenyl)piperazin-1-yl)(4-(trifluoromethyl)-1H-pyrazol-1-yl)methanone] | > 75 | > 75 | > 75 | > 75 | > 75 | > 75 | > 75 | > 75 | – | – | – | – | – | – | – | – |
| O=C(N1CCN(Cc2ccccc2F)CC1)n1cc(C(F)(F)F)cn1 [Example 276, (4-(2-Fluorobenzyl)piperazin-1-yl)(4-(trifluoromethyl)-1H-pyrazol-1-yl)methanone] | – | – | – | – | – | – | – | – | > 75 | > 75 | > 75 | > 75 | < 100 | < 100 | < 100 | < 100 |
| CNC(=O)c1cnn(C(=O)N2CCN(Cc3ccc(Cl)cc3)CC2)c1 [Example 223, 1-(4-(4-Chlorobenzyl)piperazine-1-carbonyl)-N-methyl-1H-pyrazole-4-carboxamide] | > 75 | – | > 75 | – | > 75 | – | > 75 | – | – | – | – | – | < 100 | 100 to 1000 | 100 to 1000 | – |
| Cc1cnn(C(=O)N2CCCCC2)c1 [Example 2, (4-Methyl-1H-pyrazol-1-yl)(piperidin-1-yl)methanone] | 25 to 75 | > 75 | < 25 | > 75 | < 25 | 25 to 75 | < 25 | > 75 | – | – | – | – | – | – | – | – |

— patent US10093630B2, “Pyrazole compounds and methods of making and using same” (ABIDE THERAPEUTICS, INC., priority 2014, dated 2018)
